From patent US11001564B2, “Substituted chromane-8-carboxamide compounds and analogues thereof, and methods using same” (priority 2016, dated 2021) come the findings set out here.

pEC50: −log10 of the molar value. Counter-ions that a name gives are not always drawn.

For one assay, the system named is HBV rcDNA in HepDE19 cells. The assay is described as follows: HepDE19 assay with bDNA quantitation of HBV rcDNA. The settings on record: HepDE19 cells, 7 day incubation, rcDNA by Quantigene 2.0 bDNA assay; read-out: DE-19 bDNA EC50. The format is cell-based, hepatitis B virus (HBV). The procedure, abridged: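 HepG2-derived HepDE19 cells, switched to Tet-free medium, were exposed 7 days at 37 °C to compound (8-point ½-log series from 25 μM, 0.5% DMSO). HBV rcDNA measured by bDNA assay with HBV-specific probes; EC50/EC90 by 4-parameter fit. CC50 from CellTiter-Glo ATP on replicate plates after 4 days.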
For orientation: pEC50 means the negative decadic logarithm of the EC50, by convention in mol/L. Regarding `CN1CCCC(COC(=O)N[C@H]2CCOc3c(C(=O)Nc4ccc(F)c(F)c4)cccc32)C1` (single isomer, unassigned) [Compound 99], the pEC50 was 4.60.

As for `O=C(N[C@H]1CCOc2c(C(=O)Nc3ccc(F)c(F)c3)cccc21)OCC1CCCNC1` (single isomer, unassigned) [Compound 94], the pEC50 was 4.66.

For the compound `O=C(N[C@H]1CCOc2c(C(=O)Nc3ccc(F)c(F)c3)cccc21)OCC1CCCCN1` (single isomer, unassigned) [Compound 86], the pEC50 was 4.82.

The assay is the same for the next values; noted with them: Hepatitis B virus, HepDE19, 168 h, HepDE19 cells, 7 day incubation, rcDNA by Quantigene 2.0 bDNA assay; read-out: DE-19 bDNA EC50.
For the compound `COC(=O)N[C@H]1CCSc2c(C(=O)Nc3ccc(F)c(Cl)c3)ccc(F)c21` [Compound 174, Methyl (S)-(8-((3-chloro-4-fluorophenyl)carbamoyl)-5-fluorothiochroman-4-yl)carbamate], the pEC50 was 5.80.

In the case of `Cc1cc(NC(=O)c2ccc(F)c3c2OCC[C@@H]3NC(=O)OC[C@H]2CCCC(=O)N2)ccc1F` [Compound 142, ((R)-6-Oxopiperidin-2-yl)methyl ((S)-5-fluoro-8-((4-fluoro-3-methylphenyl)carbamoyl)chroman-4-yl)carbamate], the pEC50 is 6.14.

In the case of `CNC(=O)N[C@H]1CCOc2c1ccc(F)c2C(=O)Nc1ccc(F)c(F)c1` [Compound 48, (S)-N-(3,4-difluorophenyl)-7-fluoro-4-(3-methylureido) chromane-8-carboxamide], the pEC50 is 5.17.

Consider `Cc1cc(NC(=O)c2ccc(F)c3c2OCC[C@@H]3NC(=O)OCCc2ccccn2)ccc1F` [Compound 138, 2-(Pyridin-2-yl)ethyl (S)-(5-fluoro-8-((4-fluoro-3-methylphenyl)carbamoyl)chroman-4-yl)carbamate], for which the pEC50 was 6.22.

Turning to `O=C(Nc1ccc(F)c(F)c1)c1ccc(F)c2c1OCCC2=O` [Compound 60, N-(3,4-difluorophenyl)-5-fluoro-4-oxochromane-8-carboxamide], the pEC50 was 5.41.

`O=C(N[C@H]1CCOc2c(C(=O)Nc3ccc(F)c(F)c3)cccc21)OCc1cnccn1` [Compound 81, Pyrazin-2-ylmethyl (S)-(8-((3,4-difluorophenyl)carbamoyl)chroman-4-yl)carbamate]: the pEC50 is 5.62.

`Nc1cc(C(=O)Nc2ccc(F)c(F)c2)c2c(c1)[C@@H](NC(=O)OCc1ccccn1)CCO2` [Compound 157, Pyridin-2-ylmethyl (S)-(6-amino-8-((3,4-difluorophenyl)carbamoyl)chroman-4-yl)carbamate]: the pEC50 is 4.96.

For `COC(=O)N[C@H]1CCOc2c(C(=O)Nc3ccc(F)c(F)c3)cc(N)cc21` [Compound 148, Methyl (S)-(6-amino-8-((3,4-difluorophenyl)carbamoyl)chroman-4-yl)carbamate], the pEC50 is 5.19.

In the case of `CC(=O)N1CC(COC(=O)N[C@H]2CCOc3c(C(=O)Nc4ccc(F)c(C)c4)ccc(F)c32)C1` [Compound 161, (1-Acetylazetidin-3-yl)methyl (S)-(5-fluoro-8-((4-fluoro-3-methylphenyl)carbamoyl)chroman-4-yl)carbamate], the pEC50 was 6.07.

For the compound `O=C(N[C@H]1CCOc2c(C(=O)Nc3ccc(F)c(F)c3)cccc21)OCc1ccncn1` [Compound 66, Pyrimidin-4-ylmethyl (S)-(8-((3,4-difluorophenyl)carbamoyl)chroman-4-yl)carbamate], the pEC50 was 5.46.

In the case of `COC(=O)N[C@H]1CCCc2c(C(=O)Nc3ccc(F)c(F)c3)cccc21` [Compound 184, Methyl (S)-(5-((3,4-difluorophenyl)carbamoyl)-1,2,3,4-tetrahydronaphthalen-1-yl)carbamate], the pEC50 is 5.06.

As for `O=C(N[C@@H]1CCSc2c(C(=O)Nc3ccc(F)c(Cl)c3)ccc(F)c21)OCc1ccccn1` [Compound 173], the pEC50 is 5.06.

With `Cn1nccc1CN[C@H]1CCOc2c(C(=O)Nc3ccc(F)c(F)c3)cccc21` [Compound 101], the pEC50 is 4.68.

Consider `O=C(Nc1ccc(F)c(F)c1)c1cccc2c1OCC[C@H]2O` [Compound 4, (R)-N-(3,4-difluorophenyl)-4-hydroxychromane-8-carboxamide], for which the pEC50 is 5.66.

On to `Cn1nccc1COC(=O)N[C@H]1CCOc2c(C(=O)Nc3ccc(F)c(F)c3)cccc21` [Compound 100, (1-Methyl-1H-pyrazol-5-yl)methyl (S)-(8-((3,4-difluorophenyl)carbamoyl)chroman-4-yl)carbamate], for which the pEC50 was 5.59.

With `O=C(Nc1cccc(Cl)c1)c1cccc2c1OCCC2` [Compound 1, N-(3-chlorophenyl)chromane-8-carboxamide], the pEC50 is 4.64.

In the case of `COC(=O)N[C@H]1CCOc2c(C(=O)Nc3cccc(Cl)c3)cccc21` [Compound 37, Methyl (S)-(8-((3-chlorophenyl)carbamoyl)chroman-4-yl)carbamate], the pEC50 is 5.55.

For the compound `CNC(=O)N[C@H]1CCOc2c(C(=O)Nc3ccc(F)c(F)c3)cc(N)cc21` [Compound 149, (S)-6-Amino-N-(3,4-difluorophenyl)-4-(3-methylureido)chromane-8-carboxamide], the pEC50 was 4.70.

As for `O=C(N[C@H]1CCOc2c(C(=O)Nc3ccc(F)c(Cl)c3)ccc(F)c21)OCCN1CCCC1=O` [Compound 159, 2-(2-Oxopyrrolidin-1-yl)ethyl (S)-(5-fluoro-8-((3-chloro-4-fluorophenyl)carbamoyl)chroman-4-yl)carbamate], the negative-log EC50 (pEC50) was 6.39.

Take `CC(=O)N[C@H]1CCOc2c(C(=O)Nc3ccc(F)c(C)c3)ccc(F)c21` [Compound 121, (4S)-4-Acetamido-5-fluoro-N-(4-fluoro-3-methylphenyl)-3,4-dihydro-2H-1-benzopyran-8-carboxamide]: the pEC50 was 6.21.

As to `CN1CCC(COC(=O)N[C@H]2CCOc3c(C(=O)Nc4ccc(F)c(F)c4)cccc32)CC1` [Compound 95, (1-methylpiperidin-4-yl)methyl (S)-(8-((3,4-difluorophenyl)carbamoyl)chroman-4-yl)carbamate], the pEC50 was 4.62.

Take `O=C(Nc1ccc(F)c(Cl)c1)c1ccc(F)c2c1OCCC2=O` [Compound 79, N-(3-chloro-4-fluorophenyl)-5-fluoro-4-oxochromane-8-carboxamide]: the pEC50 was 5.28.

As for `Cc1cc(NC(=O)c2ccc(F)c3c2OCC[C@@H]3NC(=O)OC[C@@H]2CCC(=O)N2C)ccc1F` [Compound 166, ((S)-1-Methyl-5-oxopyrrolidin-2-yl)methyl ((S)-5-fluoro-8-((4-fluoro-3-methylphenyl)carbamoyl)chroman-4-yl)carbamate], the negative-log EC50 (pEC50) is 5.89.

With `O=C(N[C@@H]1CCOc2c(C(=O)Nc3ccc(F)c(Cl)c3)ccc(F)c21)OCc1ccccn1` [Compound 106, pyridin-2-ylmethyl (R)-(8-((3-chloro-4-fluorophenyl)carbamoyl)-5-fluorochroman-4-yl)carbamate], the pEC50 was 4.70.

For `O=C(N[C@H]1CCOc2c(C(=O)Nc3ccc(F)c(F)c3)cccc21)OCC1CCNCC1` [Compound 107, piperidin-4-ylmethyl (S)-(8-((3,4-difluorophenyl)carbamoyl)chroman-4-yl)carbamate], the pEC50 is 4.68.

Take `O=C(Nc1ccc(F)c(F)c1)c1cccc2c1OCCC2c1cnccn1` (centres unmarked) [Compound 97, N-(3,4-difluorophenyl)-4-(pyrazin-2-yl)chromane-8-carboxamide]: the pEC50 is 4.80.

The assay is the same for the next values; noted with them: Hepatitis B virus, HepDE19, 168 h, read-out: DE-19 bDNA EC50, HepDE19 cells, 7 day incubation, rcDNA by Quantigene 2.0 bDNA assay.
As for `COC(=O)N[C@H]1CCOc2c(C(=O)Nc3cccc(C(F)(F)F)c3)cccc21` [Compound 49], the pEC50 was 4.96.

Take `COc1cccc(COC(=O)N[C@H]2CCOc3c(C(=O)Nc4ccc(F)c(F)c4)cccc32)n1` [Compound 111, (6-Methoxypyridin-2-yl)methyl (S)-(8-((3,4-difluorophenyl)carbamoyl)chroman-4-yl)carbamate hydrochloride]: the pEC50 was 5.57.

Regarding `CNC(=O)N[C@H]1CCOc2c(C(=O)Nc3ccc(F)c(F)c3)ccc(Cl)c21` [Compound 126, (S)-5-chloro-N-(3,4-difluorophenyl)-4-(3-methylureido)chromane-8-carboxamide], the pEC50 is 6.13.

Consider `CN(C)S(=O)(=O)N1CCC(COC(=O)N[C@H]2CCOc3c(C(=O)Nc4ccc(F)c(Cl)c4)ccc(F)c32)CC1` [Compound 163, (1-(N,N-dimethylsulfamoyl)piperidin-4-yl)methyl (S)-(8-((3-chloro-4-fluorophenyl)carbamoyl)-5-fluorochroman-4-yl)carbamate], for which the pEC50 was 6.00.

Turning to `O=C(N[C@H]1CCCc2c(C(=O)Nc3ccc(F)c(F)c3)cccc21)OCc1ccccn1` [Compound 186, Pyridin-2-ylmethyl (S)-(5-((3,4-difluorophenyl)carbamoyl)-1,2,3,4-tetrahydronaphthalen-1-yl)carbamate], the pEC50 is 5.25.

With `CCCOC(=O)N[C@H]1CCOc2c(C(=O)Nc3ccc(F)c(F)c3)cccc21` [Compound 21, Propyl (8-((3,4-difluorophenyl)carbamoyl)chroman-4-yl)carbamate], the negative-log EC50 (pEC50) is 4.66.

Turning to `CNC(=O)N[C@H]1CCOc2c(C(=O)Nc3ccc(F)c(C)c3)ccc(F)c21` [Compound 122, (S)-5-fluoro-N-(4-fluoro-3-methylphenyl)-4-(3-methylureido)chromane-8-carboxamide], the pEC50 was 6.49.

`O=C(N[C@H]1CCOc2c(C(=O)Nc3ccc(F)c(F)c3)cccc21)OCc1ncccc1Cl` [Compound 123, (3-Chloropyridin-2-yl)methyl (S)-(8-((3,4-difluorophenyl)carbamoyl)chroman-4-yl)carbamate hydrochloride]: the pEC50 is 5.06.

Turning to `CNC(=O)N[C@H]1CCCc2c(C(=O)Nc3ccc(F)c(F)c3)cccc21` [Compound 185, (S)—N-(3,4-Difluorophenyl)-5-(3-methylureido)-5,6,7,8-tetrahydronaphthalene-1-carboxamide], the pEC50 is 5.01.
